Experimental data from patent US20230406855A1, “N-1 BRANCHED IMIDAZOQUINOLINES, CONJUGATES THEREOF, AND METHODS” (3M INNOVATIVE PROPERTIES COMPANY, priority 2020, published 2023).

Assays:
human TLR8 = biological target: T1, human TLR8 (Homo sapiens, UniProt Q9NR97); assay: TLR activation and specificity, HEK-BLUE-hTLR8 SEAP reporter cells; type: cell-based; settings: 16-20 hours, lowest concentration giving SEAP response at least 2x vehicle control, tested 0.01-30 micromolar
T1 construct: host or cells: HEK293 (HEK-BLUE-hTLR8)
T1 sequence (Q9NR97 27-1041): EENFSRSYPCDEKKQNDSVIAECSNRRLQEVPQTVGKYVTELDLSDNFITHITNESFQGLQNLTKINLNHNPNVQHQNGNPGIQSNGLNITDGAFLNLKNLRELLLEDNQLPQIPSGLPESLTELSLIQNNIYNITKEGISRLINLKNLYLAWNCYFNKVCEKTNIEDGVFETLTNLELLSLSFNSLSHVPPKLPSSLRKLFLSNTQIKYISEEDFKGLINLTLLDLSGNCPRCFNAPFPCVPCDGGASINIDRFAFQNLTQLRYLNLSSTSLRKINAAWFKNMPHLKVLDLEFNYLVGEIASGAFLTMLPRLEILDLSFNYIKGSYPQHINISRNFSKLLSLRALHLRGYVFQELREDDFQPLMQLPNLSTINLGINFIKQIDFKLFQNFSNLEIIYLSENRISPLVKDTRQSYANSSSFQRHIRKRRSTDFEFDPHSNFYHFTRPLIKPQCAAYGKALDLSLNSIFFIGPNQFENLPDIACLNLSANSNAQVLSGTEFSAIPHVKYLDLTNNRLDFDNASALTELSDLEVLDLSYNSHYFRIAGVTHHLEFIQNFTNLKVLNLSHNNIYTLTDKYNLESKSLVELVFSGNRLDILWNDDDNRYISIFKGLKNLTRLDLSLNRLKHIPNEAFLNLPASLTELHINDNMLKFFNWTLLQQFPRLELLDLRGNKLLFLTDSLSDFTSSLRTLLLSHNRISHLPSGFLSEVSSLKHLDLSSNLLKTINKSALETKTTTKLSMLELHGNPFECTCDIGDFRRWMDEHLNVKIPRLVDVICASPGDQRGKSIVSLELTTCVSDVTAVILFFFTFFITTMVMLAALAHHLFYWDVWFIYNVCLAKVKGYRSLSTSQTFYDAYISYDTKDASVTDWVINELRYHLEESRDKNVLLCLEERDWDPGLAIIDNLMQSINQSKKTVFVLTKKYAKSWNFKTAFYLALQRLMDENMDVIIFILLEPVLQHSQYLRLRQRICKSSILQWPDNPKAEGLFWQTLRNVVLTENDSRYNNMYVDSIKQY
Description: (§1) HEK-BLUE-hTLR7 or hTLR8 reporter cells were obtained from InvivoGen, San Diego, CA. According to the manufacturer's description, these reporter cells were prepared by co-transfection of HEK293 cells with an inducible secreted embryonic alkaline phosphatase (SEAP) reporter gene and either the human TLR7 or TLR8 gene. The SEAP reporter gene was placed under the control of an IFN-β minimal promoter fused to five NF-κB and AP-1-binding sites. In the presence of a TLR ligand, activation of NF-κB and AP-1 occurs, resulting in a corresponding increase in SEAP levels. […]
(§2) For each compound, hTLR7, hTLR8, and their respective null control HEK cells were screened. […] Cell culture supernatants containing the SEAP reporter were collected after an incubation period of 16-20 hours in a cell culture incubator (37° C. and 5% CO2), and either analyzed immediately or stored at −80° C. SEAP levels were measured using the colorimetric enzyme assay (QUANTI-BLUE (InvivoGen) according to manufacturer's instructions.
(§3) Specifically, the minimum effective concentration of each compound (micromolar) was determined as the lowest concentration of the compound that produced a SEAP expression response at least 2× greater than that observed with the vehicle control wells.

[1] = tested on: Human peripheral blood mononuclear cells (PBMC); assay: Cytokine induction in human cells (PBMC), Ella Simple Plex ELISA; type: cell-based; settings: 21-24 hours, lowest concentration giving cytokine at least 2x negative control, tested 0.01-30 micromolar
Description: Whole blood was obtained from healthy human donors and collected by venipuncture into vacutainer tubes or syringes containing EDTA. Human peripheral blood mononuclear cells (PBMC) were purified from the whole blood by density gradient centrifugation. Histopaque 1077 (15 mL, Sigma, St. Louis, MO) was transferred to 6×50 mL sterile polypropylene conical tubes. The Histopaque was overlayed with 15-25 mL of blood diluted 1:2 in Hank's Balanced Salts Solution (HBSS) (Gibco, Life Technologies, Grand Island, NY). The tubes were then centrifuged at 1370 rpm for 30 minutes at 20° C., with no brake (400×g, GH 3.8 A Rotor).
The interface (buffy coat) containing the PBMC was collected and placed in a new sterile 50 mL conical polypropylene centrifuge tube. The PBMC were mixed with an equal volume of HBSS (about 20 mL from the interface and about 20 mL of HBSS), and then centrifuged at 1090 rpm, 10 minutes, 20° C., with brake (270×g, GH 3.8 A Rotor). After completing centrifugation, the cells were resuspended in 2-3 mL ACK Red blood cell lysis buffer (ammonium chloride potassium solution, Gibco, Life Technologies) and incubated for 2-5 minutes at 20° C. Next, HBSS (40 mL) was added to the cells, and the sample was centrifuged at 270×g for 10 minutes at 20° C. The supernatant was decanted, and the cell pellet was resuspended in 5 mL AIM V Medium (Gibco, Life Technologies). Cell aggregates and debris were removed by filtering the cell solution through a BD Falcon 70 micron nylon cell strainer (BD Biosciences, San Jose, CA).
The number of viable cells was determined by counting with a Moxi Z instrument (ORFLO Technologies, Ketchum, ID) or by using a hemacytometer. For determining cell viability with a hemacytometer, the cells were diluted 1/10 in 0.4% trypan blue and HBSS (specifically, 50 microliter of trypan blue+40 microliter of HBSS+10 microliter of cell solution were added to a microfuge tube and mixed). Ten microliters of the diluted cells were then applied to the hemacytometer, and the number of viable PBMC were determined by microscopy.
The PBMC sample was then resuspended in 96-well plates at a concentration of 8×10^5 cells/well in 0.1 mL of AIM-V medium. Each compound was solubilized in dimethyl sulfoxide (DMSO) to create a 3 mM stock solution. The stock solution was then further diluted with AIM-V medium to prepare the serial dilutions. The diluted compound (100 microliters) was then transferred to the PBMCs to produce testing sets with final compound concentrations of 30, 10, 3.3, 1.1, 0.37, 0.12, 0.04, 0.01 micromolar. The plates also had both positive and negative controls. The negative control wells contained only AIM-V medium with no example compound. The positive control wells contained a control set of imiquimod serially diluted to concentrations of 30, 10, 3.3, 1.1, 0.37, 0.12, 0.04, 0.01 micromolar. The concentrations used in the control set were selected to match the concentrations used in the testing set. The plates were then cultured at 37° C./5% CO2 for 21-24 hours. Cell-free supernatants were harvested by centrifuging the 96-well plates at 2100 rpm, 23° C. for 10 minutes. Approximately 160 microliters of the supernatant was then stored in a NUNC 96-well plate, covered with the compression cap and stored at −80° C. until the cytokine analysis was done.
Cytokine levels (human IFN-alpha multisubtype, human IFN-gamma, and human TNF-alpha) were measured in picograms/mL by Ella Simple Plex ELISA (ProteinSimple, San Jose, CA) according to the manufacturer's instructions.
Specifically, the minimum effective concentration of each compound (micromolar) was determined as the lowest concentration of the compound that induced a measured cytokine response at a level ([…]) that was at least 2× greater than that observed with the negative control wells.

human TLR7 = biological target: T2, human TLR7 (Homo sapiens, UniProt Q9NYK1); assay: TLR activation and specificity, HEK-BLUE-hTLR7 SEAP reporter cells; type: cell-based; settings: 16-20 hours, lowest concentration giving SEAP response at least 2x vehicle control, tested 0.01-30 micromolar
T2 construct: host or cells: HEK293 (HEK-BLUE-hTLR7)
T2 sequence (Q9NYK1 27-1049): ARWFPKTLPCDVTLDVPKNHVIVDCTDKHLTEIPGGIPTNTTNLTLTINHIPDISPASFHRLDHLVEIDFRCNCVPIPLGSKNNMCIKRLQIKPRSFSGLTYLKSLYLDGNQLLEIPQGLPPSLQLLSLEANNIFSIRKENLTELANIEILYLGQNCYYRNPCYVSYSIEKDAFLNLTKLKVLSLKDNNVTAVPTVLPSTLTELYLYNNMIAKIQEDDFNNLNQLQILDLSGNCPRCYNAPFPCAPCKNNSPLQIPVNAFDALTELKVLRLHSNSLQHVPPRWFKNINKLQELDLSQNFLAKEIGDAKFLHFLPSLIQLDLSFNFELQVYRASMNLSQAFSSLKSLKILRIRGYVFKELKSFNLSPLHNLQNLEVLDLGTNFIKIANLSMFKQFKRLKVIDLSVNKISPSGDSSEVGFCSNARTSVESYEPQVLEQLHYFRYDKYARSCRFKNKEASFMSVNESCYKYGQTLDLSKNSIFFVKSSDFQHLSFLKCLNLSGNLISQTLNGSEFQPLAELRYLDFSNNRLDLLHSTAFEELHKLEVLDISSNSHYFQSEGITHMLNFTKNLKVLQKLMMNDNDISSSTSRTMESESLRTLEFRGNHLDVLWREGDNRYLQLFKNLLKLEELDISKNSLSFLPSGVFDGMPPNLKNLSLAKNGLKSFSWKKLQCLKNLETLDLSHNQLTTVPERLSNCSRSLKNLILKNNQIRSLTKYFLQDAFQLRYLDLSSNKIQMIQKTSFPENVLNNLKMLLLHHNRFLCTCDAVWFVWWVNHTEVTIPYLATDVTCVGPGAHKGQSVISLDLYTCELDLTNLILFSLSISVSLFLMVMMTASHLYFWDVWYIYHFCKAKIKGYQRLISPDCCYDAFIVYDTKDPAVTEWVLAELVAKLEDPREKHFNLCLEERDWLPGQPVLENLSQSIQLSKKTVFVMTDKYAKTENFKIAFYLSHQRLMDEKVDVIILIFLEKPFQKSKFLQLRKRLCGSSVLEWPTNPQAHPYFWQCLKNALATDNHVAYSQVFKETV
Description: as §1, §2, §3

[2] = tested on: LHRH receptor expressing tumor cells; settings: free Dox relative to LHRH-conjugated Dox; cited from earlier work

CCOC[C@H](Cc1ccc(OCc2cn(Cc3ccccc3)nn2)cc1)n1cnc2c(N)nc3ccccc3c21 [Example 2, (S)-1-(1-(4-((1-benzyl-1H-1,2,3-triazol-4-yl)methoxy)phenyl)-3-ethoxypropan-2-yl)-1H-imidazo[4,5-c]quinolin-4-amine]
MEC to Produce TLR Activation, TLR 8 (human TLR8): 3.3 µM | MEC to Induce Cytokine IFN-alpha [1]: ≤0.01 µM | MEC to Induce Cytokine IFN-gamma [1]: ≤0.01 µM | MEC to Induce Cytokine TNF-alpha [1]: ≤0.01 µM | MEC to Produce TLR Activation, TLR 7 (human TLR7): ≤0.01 µM

C#CCOc1ccc(C[C@@H](COCC)n2cnc3c(N)nc4ccccc4c32)cc1 [Example 1, (S)-1-(1-ethoxy-3-(4-(prop-2-yn-1-yloxy)phenyl)propan-2-yl)-1H-imidazo[4,5-c]quinolin-4-amine]
MEC to Produce TLR Activation, TLR 8 (human TLR8): 10 µM | MEC to Induce Cytokine IFN-alpha [1]: ≤0.01 µM | MEC to Induce Cytokine IFN-gamma [1]: ≤0.01 µM | MEC to Induce Cytokine TNF-alpha [1]: ≤0.01 µM | MEC to Produce TLR Activation, TLR 7 (human TLR7): ≤0.01 µM

C[C@@H]1C[C@H]2[C@@H]3CCC4=CC(=O)C=C[C@]4(C)C3=CC[C@]2(C)[C@H]1C(=O)CN1CCN(c2cc(N3CCCC3)nc(N3CCCC3)n2)CC1 [Dox]
amount of free Dox required for antitumor activity equal to the LHRH conjugate [2]: approximately 200 times
